Source: patent publication US9266904B2, “6-bridged heteroaryldihydropyrimidines for the treatment and prophylaxis of hepatitis B virus infection” (priority 2013, dated 2016)
≈ marks a conversion by molar mass, not a printed value.

Columns and labels:
HBV = HBV infected transgenic mouse or humanized mouse models; cited from earlier work
CYP3A4 = conditions: human, 24 h
Procedure: Human cryopreserved hepatocytes (Life Technologies, Carlsbad, USA) were thawed and cultured in collagen I coated 96-well plates with a density of 52,000 cells/well. After attachment, medium was changed and cells were pre-cultured overnight in hepatocyte maintenance medium (HMM; Lonza, Switzerland).
Test compounds were dosed to the cells next morning at an indicated concentration (up to 10 μM) in HMM culture media containing gentamycin and a constant 0.1% DMSO. Similarly, dilutions of the positive inducer compounds omeprazole (prototypical inducer of human CYP1A2; final concentrations: 1 and 10 μM), phenobarbital (prototypical inducer of human CYP2B6; final concentrations: 100 and 1000 μM) and rifampicin (prototypical inducer of human CYP3A4; final concentrations: 1 and 10 μM) were prepared from 1000 fold DMSO stock solutions in HMM containing gentamycin. Medium change was then performed and cells were exposed for 24 hours to test compounds, positive inducer compounds, or vehicle (0.1% DMSO), respectively.
At the end of the compound exposure period, medium was removed and cells lysed using 100 μL/well MagNA Pure LC RNA isolation tissue lysis buffer (Roche Diagnostics AG, Rotkreuz, Switzerland). Plates were then sealed and frozen at −80° C. until further workup.
mRNA isolation was performed using the MagNA Pure 96 system (Roche Diagnostics AG, Rotkreuz, Switzerland) and the respective cellular RNA large volume kit (Roche Diagnostics AG, Rotkreuz, Switzerland) from thawed samples diluted 1:1 with PBS. The volume of the cell lysis and an elution volume of 100 μL were used. 20 μL of the resulting mRNA suspension was then used for reverse transcription using 20 μL of the transcript or first stand cDNA synthesis kit (Roche prime Supply, Mannheim, Germany). The resulting cDNA was diluted with 40 μL of H2O before using for qRT-PCR. qRT-PCR was performed by using the forward and the reverse primer, the corresponding UPL (all from Microsynth, Balgach, Switzerland) and the Taqman Fast advanced master mix (Applied Biosystems), on an ABI 7900 machine (Applied Biosystems).
qRT-PCR Ct-values for the respective P450s were put into relation to the Ct-value of RN18S1 (microsynth, Balgach, Switzerland) of the same sample. Doing so, a respective Δct-value was calculated. Using the average of all Δct-values for the vehicle control samples, a ΔΔct-value was calculated for each sample (ΔΔct-value(sample)=Δct-value(sample)−average of Δct-value of all vehicle controls). The fold induction of the respective sample was calculated as 2^(−ΔΔct). The individual fold induction values were then averaged per treatment condition (usually n=3 biological replicates).
Relative induction values to the respective positive inducer compound condition (10 μM omeprazole for CYP1A2; 1000 μM Phenobarbital for CYP2B6; 10 μM rifampicin for CYP3A4) were then calculated from the fold induction values as follows: Relative induction(%)=100×(T−V)/(P−V)
T: fold induction of test compound condition
P: fold induction of positive inducer compound
V: fold induction of vehicle controls

[1] = Human microsomal clearance assay; type: in vitro ADME; conditions: human, 1 μM, pH 7.4
Outline: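 Liver microsomes (0.5 mg/mL protein) were incubated with 1 μM compound at 37 °C, pH 7.4 phosphate, with an NADPH-regenerating system. Samples at 0-30 min were quenched and measured by LC-MS/MS for parent loss. No-NADPH controls were included.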

[2] = test system: HBV replication in HepG2.2.15 cells; assay: Anti-HBV activity in vitro in HepG2.2.15 cells (extracellular HBV DNA by qPCR); type: cell-based; conditions: Hepatitis B virus, HepG2.2.15, Anti-HBV activity in HepG2.2.15 cells; read-out: EC50
Outline: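 Constitutively HBV-producing HepG2.2.15 cells were seeded overnight at 37 °C, then treated with half-log serial dilutions of compound (0.5% DMSO final) for five days. Supernatant HBV DNA was extracted and quantified by qPCR; EC50 is the concentration inhibiting HBV replication by 50%.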

HepDE19 cells = assay: Cytotoxicity (CCK-8 cell viability) and selectivity index; type: cell-based, human; conditions: CC50 value/EC50 value
Outline: (§1)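 HepDE19 cells (5×10^3/well) were treated with compounds as for the EC50 runs and, after 5 days, given CCK-8 for 2 h at 37° C. Absorbance was read at OD450 and OD630, and CC50 was taken as the concentration killing 50% of host cells.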

[3] = as above; type: cell-based, human; conditions: human, HepDE19 cells; cytotoxicity, concentration resulting in death of 50% of host cells
Outline: as §1

[4] = Lyophilisation solubility assay (Lysa); type: physicochemical; conditions: pH 6.5, aqueous buffer, thermodynamic from solid
Outline: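 DMSO was evaporated from 10 mM stocks, and residues were taken up in 0.05 M phosphate buffer pH 6.5, stirred 1 h, shaken 2 h and left overnight. Filtrates were quantified by UV or HPLC-UV against a four-point calibration, in duplicate. Values are in μg/ml, with a lower-bound value when >80% dissolved.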

Row | Compound | in vivo efficacy (HBV DNA reduction) (HBV) | % of Positive control (10 μM Rifampicin) (CYP3A4) [%] | CLh [1] [mL/min/kg] | EC50 [2] [µM] | Selectivity index (CC50/EC50) (HepDE19 cells) | CC50 at 5 days [3] [µM] | solubility thermodynamic [4] [µg/mL]
1 | COC(=O)C1=C(C)NC(c2ncc(F)cc2F)=N[C@H]1c1ccc(F)cc1Cl [Bay 41-4109] | demonstrated in vivo efficacy with HBV DNA reduction | – | – | – | – | – | –
2 | COC(=O)C1=C(CN2[C@@H]3COC[C@H]2C[C@H](CC(=O)O)C3)NC(c2nccs2)=N[C@H]1c1ccc(F)c(F)c1Cl [Example 73, Exo-2-[(1S,5R)-9-[[(4R)-4-(2-chloro-3,4-difluoro-phenyl)-5-methoxycarbonyl-2-thiazol-2-yl-1,4-dihydropyrimidin-6-yl]methyl]-3-oxa-9-azabicyclo[3.3.1]nonan-7-yl]acetic acid] | – | 21 | 3.6 | 0.003 | 24083 | 72 | > 654
3 | CCOC(=O)C1=C(CN2C3COCC2CC(CC(=O)O)C3)NC(c2nccs2)=N[C@H]1c1ccc(F)cc1Cl (stereo partly drawn) [Example 26, (R)-6-(7-Carboxymethyl-3-oxa-9-aza-bicyclo[3.3.1]non-9-ylmethyl)-4-(2-chloro-4-fluoro-phenyl)-2-thiazol-2-yl-1,4-dihydro-pyrimidine-5-carboxylic acid ethyl ester] | – | 36 | 3.5 | 0.013 | 5231 | 68 | 470 (≈ 835 µM)
